Experiment [1] deals with human IR-A. The experiment in a line: Competitive receptor binding (SPA), IR-A. As for the experimental part: (§1) The binding of the different insulins to the human IR-A and IR-B was analyzed in a competitive binding assay using the scintillation proximity assay as previously described, [30]. […] Briefly, cells were grown to confluence and gently detached, transferred to a centrifugation tube followed by centrifugation for 10 minutes at 600×g at 4°C. The pellet was resuspended in ice-cold 2.25 STM buffer (2.25 mol/L sucrose, 5 mmol/L Tris-HCl pH 7.4, 5 mmol/L MgCl2, 1x Complete Protease Inhibitor) and disrupted using a hand-held Dounce homogenizer followed by sonication. This homogenate was transferred to a centrifugation tube, overlaid with 0.8 STM buffer (0.8 mol/L sucrose, 5 mmol/L Tris-HCl pH 7.4, 5 mmol/L MgCl2, 1x Complete Protease Inhibitor) and centrifuged for 90 minutes at 100 000×g at 4°C. The emerging pellicle at the interface was collected, transferred to a new tube and washed two times with PBS by centrifugation for 10 minutes at 1500×g. The final pellet was resuspended in a small volume of dilution buffer (50 mmol/L Tris-HCl pH 7.4, 5 mmol/L MgCl2, 1x Complete Protease Inhibitor) and homogenized with a Dounce homogenizer. These plasma membrane preparations were stored until usage at –80°C.
(§2) Binding experiments were conducted in 96-well microplates. Per well 2 µg of membranes were incubated with 0.25 mg wheat germ agglutinin polyvinyltoluene polyethylenimine SPA beads, 100 pmol/L A14[^125I]-insulin and various concentrations of unlabeled insulins in a binding buffer containing 0.05 mol/L Tris-HCl pH 7.8, 0.15 mol/L NaCl, 0.1% BSA, Complete Protease Inhibitor for 12 hours at room temperature (23°C). The radioactivity was measured at equilibrium in a microplate scintillation counter (Wallac Microbeta, Freiburg, Germany).
(§3) For each experiment, IC50 or EC50 values were obtained using the 4-parameter logistic model according to Ratkowsky and Reedy (1986). The adjustment was obtained by non-linear regression using the Levenberg-Marquardt algorithm in SAS v9.1.3 software via Biost@t-Speed V2.0-LTS internal application. If necessary, lower and upper asymptotes were set to 0 and 100, respectively.
(§4) The binding of a constant concentration of [^125I]insulin to plasma membranes from CHO cells overexpressing either IR-A or IR-B was measured in presence of increasing concentrations of unlabeled competing ligand after incubation at room temperature for 12 h. All data has been corrected for non-specific binding and are expressed as percentage of [^125I]insulin in absence of competing ligand. To analyze the insulin-stimulated activation and subsequent autophosphorylation of the insulin receptor CHO cells overexpressing the human IR-A (C) or IR-B (D) were stimulated for 15 min at 37°C with increasing concentrations of peptides, then the cells were fixed with 3.7% PFA and the amount of phosphotyrosines was analyzed via In-Cell Western. The data represent mean values ± SEM of at least 3 individual experiments measured in quadruplicate.

Experiment [2] deals with human IR-B. The experiment in a line: Competitive receptor binding (SPA), IR-B. As for the experimental part: as §1, §2, §3, §4
Experiment [3] concerns human IR-A. The experiment in a line: IR-A autophosphorylation (In-Cell Western). In kind it is cell-based. The conditions noted are these: CHO cells overexpressing IR-A, 15 min at 37°C, In-Cell Western; means ± SEM, at least three times; read-out: IR-A auto-phosphorylation EC50.
Source text: (§5) CHO cells expressing either the IR-A or the IR-B isoform were used for IR autophosphorylation assays using In-Cell Western. For the analysis of IGF1R autophosphorylation the receptor was overexpressed in a mouse embryo fibroblast 3T3 Tet off cell line (BD Bioscience, Heidelberg, Germany) that was stably transfected with IGF1R tetracycline-regulatable expression plasmid resulting in the expression of ∼2.6×10^5 IGF1R per cell (as determined by FACS analysis, unpublished data). In order to determine the receptor tyrosine phosphorylation level, cells were seeded into 96-well plates and grown for 48 h. Cells were serum starved with serum-free medium αMEM (PAN Biotech GmbH, Aidenbach, Germany) for 3–4 h. […] After incubation the medium was discarded and the cells were fixed in 3.75% freshly prepared para-formaldehyde for 20 min. Cells were permeabilized with 0.1% Triton-X-100 in PBS for 20 min. Blocking was performed with Odyssey blocking buffer (LI-COR, Bad Homburg, Germany) overnight at 4°C. Anti-pTyr 4G10 (Millipore, Schwalbach, Germany) was incubated for 2 h at room temperature. After incubation of the primary antibody, cells were washed with PBS+0.1% Tween20. The secondary anti-mouse-IgG-800-CW antibody (Rockland, Gilbertsville, PA, USA) was incubated for 1 h. Results were normalized by the quantification of DNA with TO-PRO3 dye (Invitrogen, Karlsruhe, Germany). Data were obtained as relative units (RU) and are presented as fold over basal.
as §3, §4
(§6) Insulin receptor autophosphorylation was studied using CHO cells overexpressing either IR-A or IR-B. For detection an immunocytochemical microplate assay (In-Cell Western) based on two-colour fluorescence was applied.

Experiment [4] concerns human IR-B. The experiment can be described thus: IR-B autophosphorylation (In-Cell Western). In kind it is cell-based. The conditions noted are these: CHO cells overexpressing IR-B, 15 min at 37°C, In-Cell Western; means ± SEM, at least three times; read-out: IR-B auto-phosphorylation EC50.
Source text: as §5, §3, §4, §6

The target in another experiment is human IGF1R. The experiment can be described thus: Competitive binding, IGF1R. The conditions noted are these: [^125I]IGF-1 as radioactive ligand; means ± SEM, at least three times; read-out: IGF1R affinity IC50. As for the experimental part:
as §2, §3
Figure 4 Activity of insulin analogs on the human IGF1R and mitogenic potential in Saos-2 cells. Analysis of binding to the human IGF1R using [^125I]IGF-1 as radioactive ligand (A) and analysis of the insulin-stimulated autophosphorylation of the human IGF1R overexpressed in MEF cells (B) were done as described in figure 2 and Materials and Methods. Data are given as means ± SEM. […] Confluent cells were starved for 4 h and then incubated for 19 h with increasing concentrations of IGF-1, insulin or analog in serum free medium. [^14C]thymidine was added for further 6 h and the radioactivity measured in a Wallac Micro Scintillation counter. Data are given as means ± SEM from octuplicate sample.

Experiment [5] deals with MCF-7 cells, HCT-116 (colorectal cancer) and PC-3 (prostate cancer) cells. The following applies: ref [49]; cited from earlier work. The text has this: A correlation between IGF1R autophosphorylation and cell proliferation has been recently assumed by Shukla et al., who observed an enhanced growth of the malignant cell line MCF7 after insulin glargine stimulation. The authors have observed 10% and 50% increases of cellular proliferation at 0.31 and about 15 nmol/L. […] Unfortunately, no dose-response curve of IGF1R autophosphorylation as well as no proliferation data from siRNA knockdown of IR have ...

Turning to “IGF-2: IGF-2 obtained from R&D Systems and Cell Sciences”, the “higher affinity for IR-A than IR-B” value in the experiment with human IR-A [1] (IR-A relative to IR-B) is recorded as 7.5 fold. The “IR-A binding relative to IGF-1 and human insulin” value with human IR-A [1] (IR-A, in words) was “higher affinity than IGF-1 but with lower affinity than human insulin”. Besides, the IC50 at human IR-A [1] (SPA, WGA PVT PEI beads, 2 µg membranes from CHO cells overexpressing IR-A, 100 pmol/L A14[^125I]-insulin, pH 7.8, 12 h, 23°C, means ± SEM, at least three times, read-out: IR-A affinity IC50) was 0.0062 ± 0.00034 µM; at human IR-B [2] (SPA, WGA PVT PEI beads, 2 µg membranes from CHO cells overexpressing IR-B, 100 pmol/L A14[^125I]-insulin, pH 7.8, 12 h, 23°C, means ± SEM, at least three times, read-out: IR-B affinity IC50), 0.0466 ± 0.0078 µM; at human IGF1R, 0.00668 ± 0.00224 µM. Also, the “IR-B binding relative to IGF-1 and human insulin” value in the experiment on human IR-B [2] (IR-B, in words) was “higher affinity than IGF-1 but with lower affinity than human insulin”. Further, the EC50 with human IR-A [3] was 0.0854 ± 0.0055 µM; in the experiment with human IR-B [4], 0.384 ± 0.0684 µM.

For the substance insulin detemir, the mitogenic potency result in experiment [5] is listed as “increased mitogenic potency”.

For orientation: IC50 means the concentration at which inhibition is half-maximal. The EC50 is the concentration needed to bring the measured effect to its halfway point.

(Values after publication PMC2832019, “In Vitro Metabolic and Mitogenic Signaling of Insulin Glargine and Its Metabolites” (PLoS ONE, 2010).)
